Data as given in patent US10214491B2, “Activators and therapeutic applications thereof” (THE JOHNS HOPKINS UNIVERSITY, priority 2007, dated 2019).
pEC50, pIC50: −log10 of the molar value. “Also recorded” adds a separate entry of the source.

Legend:
[1] = test system: WS-1 diploid fibroblast; assay: WST-1 cell viability assay, WS-1; type: cell-based, human; settings: three days
Protocol: (§1) The effect of the compounds selected using the screening assay on the viability of several tumor cell lines as well as diploid cell lines and cell strains was studied. Cells were plated in 96-well plates at a density of 10,000 cells/100 μL/well and were incubated overnight. The following day compound dilutions ranging from 0 to 40 μM were applied to the cells in triplicate and the cells were incubated with the compounds for three days. Cell viability was assayed using the WST-1 cell proliferation reagent (Roche Diagnostics, Germany) The WST-1 reagent was diluted 1:10 in cell culture media and 100 μL of the reagent dilution was applied onto cells followed by 1 hour incubation at +37° C. The specific absorbance was measured at 450 nm and a reference absorbance was measured at 690 nm. […] Analysis for Protein Levels

[2] = test system: p53, Mdm2 and p21 levels in A375 melanoma cells; assay: Immunoblotting and immunofluorescence for p53, Mdm2 and p21 levels; type: cell-based; settings: A375, 24 hours, 5 μM
Protocol: To study the effect of compounds on endogenous protein levels, A375 melanoma cells were treated with the compounds for 24 hours. Cellular lysates were prepared in lysis buffer containing 0.5% NP-40 with proteinase inhibitors. Protein (20-30 μg) was separated by sodium dodecyl sulphate-polyacrylamide gel electrophoresis (SDS-PAGE) followed by transfer to PVDF membrane (Immobilon™-P, Millipore, Bedford, Mass., USA). Immunoblotting was carried out using DO-1 antibody for p53, 2A10 for Mdm2 and anti-p21 (Becton Dickinson) to detect p21, followed by secondary antibodies conjugated with horseradish peroxidase (p53) or biotin followed by streptavidin-horseradish peroxidase (Mdm2 and p21) after which proteins were detected with enhanced chemiluminescence (ECL, Amersham Life Sciences). Equal protein loading was verified using GAPDH (p9.B.88, Europa Bioproducts Ltd, UK) as a protein loading control.
(§2) Immunofluorescence staining was carried out to determine the correct localisation of p53 and to detect H2AX phosphorylation indicative of genotoxic stress. Cells were treated with the compounds and fixed in paraformaldehyde (3.5 PFA, 25 min RT). The coverslips were permeabilised in 0.5% NP-40 and blocked in 3% bovine serum albumin (BSA). p53 was detected by staining with FL-393 antibody (Santa Cruz, 1:50, 1 h at +37° C.) followed by Alexa-594 conjugated secondary antibody (Molecular Probes, 1:200, 1 h at +37° C.), phospho-H2AX was detected by staining with anti-H2AX (P-Ser-139) antibody (Upstate, 1:200 1 h at +37° C.) followed by Alexa-488 conjugated secondary antibody (Molecular Probes, 1:200, 1 h at +37° C.). Nuclei were stained with Hoechst 33342. Images were captured using the Zeiss Axioplan fluorescence microscope equipped with Zeiss AxioCam HRc CCD-camera and AxioVision 4.5 software using 40×, NA=0,75 objective, Chroma 31000, Chroma41001 and 41004 filters for Hoechst, Alexa488 and Alexa594, respectively.

[3] = test system: normal human primary melanocytes; assay: WST-1 cell viability assay, melanocytes; type: cell-based; settings: Melanocyte, three days
Protocol: as §1

[4] = test system: Human intestinal endothelial cells; assay: WST-1 cell viability assay, intestinal endothelial cells; type: cell-based; settings: three days
Protocol: as §1

[5] = test system: p53DsRed reporter in PG3/9 melanoma cells (A375 clone); assay: p53DsRed reporter activation assay (in vitro p53 activity assay); type: cell-based; settings: for pEC50: Homo sapiens, A-375, PG3/9 melanoma cells, 24 hours, read-out: effective concentration (EC50), p53DsRed reporter activation; for fraction of p53-reporter activated cells at high concentrations: apparently due to excessive cell death
Protocol: The ability of the compounds to activate p53 was analyzed using a cell-based assay. To establish the assay, a stable cell transfectant expressing a p53-responsive reporter was generated. A375 melanoma cell line (ATCC CRL-1619) was transfected with a vector containing the p53 consensus element 13x repeat (13XRE) (Kern et al., 1991) cloned to a DsRed Express reporter vector (Clontech) to yield the vector “PG13DsRed”, hereafter termed as “p53DsRed”. […] The cell clone PG3/9 was used in the screen.
The assay was carried out in a 96-well format and all plate handlings were done using liquid handling robots (Thermo CRS, Thermo Electron Corporation; Biomek FX, Beckman Coulter and Hamilton STAR, Hamilton Microlab). Cells were plated at 10,000 cells/100 μL/well onto 96-well ViewPlates (Packard) and incubated overnight at +37° C. and 5% CO2. Small molecule compound chemical libraries were purchased and diluted to dimethylsulfoxide (DMSO) at 10 mM concentration. The compounds were pin-transferred to plain media at approximately 3 μM concentration either as single (one compound/one well) or pools of compounds (two compounds/one well). The growth media was removed and replaced with media with the test compounds followed by incubation of the cells for 24 h at +37° C. and 5% CO2. […] Following the incubation, the cells were washed with phosphate buffered saline and fixed with paraformaldehyde (PFA, 4%, 25 min, RT) and cell nuclei were stained with Hoechst 33342 (Molecular Probes, 4 μg/mL, 2 min, RT).
The fluorescence signals of Hoechst 33342 and DsRed reporter expression in the fixed cells were analyzed using ArrayScan 4.5 high-content screening platform (Cellomics) including an inverted microscope (Zeiss 200M) with 10× objective (Zeiss), Omega XF93 filter (Omega), ORCA-AG CCD camera (Hamamatsu). The algorithm used for image acquisition and analysis was Target Activation Bioapplication (Cellomics), which was set to analyse the total number of cells and the percentage of p53 reporter positive cells termed as “responders”. For each well, four images on both fluorescence channels were acquired corresponding to approximately 1700 cells in mock-treated wells. The mean number of responders was calculated for each well, and compounds causing reporter activation for more than two times the mean number of responders in the mock treated cells in each plate were regarded as hits.
In the secondary screen the hits were collected and tested over 100 nM to 10 μM concentration range. The compound treatment time, cell fixations and stainings as well as fluorescence signal detection was as described above. Compounds providing consistent p53DsRed reporter activation at low μM concentration range were selected for further testing. The effective concentration 50 (EC50) was calculated using the following formula: […]

[6] = test system: RPMI7951 (MUTp53); assay: WST-1 cell viability assay, RPMI-7951; type: cell-based; settings: three days
Protocol: as §1

[7] = test system: A375 melanoma cells; assay: Flow cytometry cell cycle and apoptosis analysis; type: cell-based; settings: A375, three days at 10 μM or six days at 5 μM
Protocol: Cell cycle analysis and cellular apoptosis was assayed with flow cytometry (LSR, Beckton Dickinson). Cells were treated with the compounds and both floating and adherent cells were harvested and fixed in 70% ethanol at −20° C. followed by staining of DNA with propidium iodide. A total of 10,000 counts were collected and data was analysed using ModFit LT 3.1 software. Cells present in sub-G1 population were regarded as apoptotic.

[8] = test system: A375 melanoma (WTp53); assay: WST-1 cell viability assay, A375; type: cell-based; settings: for pIC50: A375 melanoma (WTp53), three days, WST-1
Protocol: as §1

[9] = test system: phosphorylation of histone H2AX on serine-139 (γH2AX) in A375 melanoma cells; assay: Phospho-H2AX immunofluorescence (genotoxic stress); type: cell-based; settings: A375, 5 μM, 24 hours
Protocol: as §2

[10] = In vivo toxicity tests; settings: mice; for acute or chronic toxicities based on histological HE-stainings: i.p., 5, 10 and 20 mg/kg three times a week for three weeks; for toxicity by weight curves, macroscopical pathologies, hematoxylin-eosin staining of tissues: i.p., 5, 10 and 20 mg/kg, 9 doses/3 weeks
Protocol: Acute and chronic toxicity of the compounds was tested on FVB/N mice. Female mice of 4-6 weeks old were purchased from Harlan and 2 animals were used per compound dose. The mice were injected intraperitoneally with the compounds three times a week for three weeks in 30 microL DMSO. Two animals received vehicle only (=30 μL DMSO). The animals were weighed prior to injections and were monitored for any signs of toxicity, distress or unusual behaviour. The animals were sacrificed three days after receiving the final injection. The liver, kidney, spleen, small intestine and thymus were excised and fixed in 4% paraformaldehyde overnight, and processed into paraffin-blocks. Haematoxylin-eosin staining (HE staining) of the tissues was performed using standard immunohistological techniques.

[11] = test system: BC3-luc pleural effusion lymphoma cells; assay: Orthotopic xenograft model of pleural effusion lymphoma; type: in vivo; settings: NOD-SCID mice, 20 mg/kg i.p. seven times
Protocol: An orthotopic xenograft model of pleural effusion lymphoma was used to assess the anti-tumor activities of compounds 15, 21 and 22. Female NOD-SCID mice (Charles River, France) were injected intraperitoneally with pleural effusion lymphoma cells carrying a stable NF-kappaB regulated luciferase reporter (BC3-luc cells) (Keller et al., 2006). The tumors were allowed to establish for three days after which the mice were imaged and divided into treatment (groups 4-5 mice per group). The compound treatments were initiated on day four. The mice received 2 mg/kg (cmp21) or 20 mg/kg (cmp15 and 22) every other/third day for seven times via i.p. injections, control mice received DMSO only. The mice were imaged prior to each compound injection. Imaging was carried out with Xenogen In Vivo Imaging System (IVIS), D-luciferin (Synchem OHG, Germany) was injected intraperitoneally (100 mg/kg) 10-15 min prior to each imaging. Quantitation was done using Igor Pro Carbon analysis software, bioluminescence was quantitated and plotted as total flux within a given ROI.

[12] = test system: B-cell lymphoma (Kaposi's sarcoma herpes virus-infected pleural effusion lymphoma) cells; settings: cited from earlier work

Q: With COc1cccc2c(N)c3c(cnn3C)nc12 [Compound 1, 5-methoxy-1-methylH-pyrazolo[4,3-b]quinolin-9-amine] as the compound, how does the pIC50 ([1]; Homo sapiens, 72 h) read?
A: 4.98

Q: What about the Mdm2 induction [2] of the same compound?
A: most prominent

Q: And the pIC50 ([3]; Homo sapiens, 72 h)?
A: 4.52

Q: What about the pIC50 ([4]; Endothelial cell, 72 h) of the same compound?
A: 4.88

Q: What about the pEC50 [5] of the same compound?
A: 5.48

Q: And the “fraction of p53-reporter activated cells at high concentrations” value [5]?
A: decrease in the fraction of p53-reporter activated cells

Q: And the pIC50 ([6]; Homo sapiens, RPMI-7951, 72 h)?
A: 4.83

Q: What about the “cell cycle / apoptosis phenotype” value [7] of the same compound?
A: G2-phase arrest and apoptosis

Q: And the “fold difference IC50 (A375)/ IC50 (WS-1)” value ([8]; A375 melanoma versus WS-1 normal cells)?
A: 2.4 fold

Q: What about the pIC50 ([8]; Homo sapiens, A-375, 72 h) of the same compound?
A: 5.37

Q: With CN(C)CCCNc1nn2c(=O)c3ccccc3nc2c2ccccc12 [Compound 7] as the compound, how does the pIC50 ([1]; Homo sapiens, 72 h) read?
A: 4.74

Q: And the pIC50 ([3]; Homo sapiens, 72 h)?
A: 4.49

Q: And the pIC50 ([4]; Endothelial cell, 72 h)?
A: 4.71

Q: What about the pEC50 [5] of the same compound?
A: 5.18

Q: And the “cellular γH2AX response (genotoxic stress)” value [9]?
A: induces genotoxic stress; also recorded: induced a cellular γH2AX response

Q: And the pIC50 ([6]; Homo sapiens, RPMI-7951, 72 h)?
A: 4.77

Q: What about the “acute or chronic toxicities based on histological HE-stainings” value [10] of the same compound?
A: No acute or chronic toxicities were observed

Q: And the “toxicity by weight curves, macroscopical pathologies, hematoxylin-eosin staining of tissues” value [10]?
A: did not show any apparent toxicity

Q: And the “cell cycle / apoptosis phenotype” value [7]?
A: imminent G2-phase arrest and increased the apoptotic fraction of the cells

Q: What about the pIC50 ([8]; Homo sapiens, A-375, 72 h) of the same compound?
A: 5.52

Q: With CCOC(=O)c1cnc2c(C)cc(C)cc2c1NCCCN(C)C [Compound 9, ethyl 4-(3-dimethylaminopropylamino)-6,8-dimethyl-quinoline-3-carboxylate] as the compound, how does the pIC50 ([1]; Homo sapiens, 72 h) read?
A: 4.80

Q: And the Mdm2 induction [2]?
A: most prominent

Q: What about the pIC50 ([3]; Homo sapiens, 72 h) of the same compound?
A: < 4.40

Q: And the pIC50 ([4]; Endothelial cell, 72 h)?
A: 4.71

Q: And the pEC50 [5]?
A: 5.34

Q: What about the pIC50 ([6]; Homo sapiens, RPMI-7951, 72 h) of the same compound?
A: 4.75

Q: And the “acute or chronic toxicities based on histological HE-stainings” value [10]?
A: No acute or chronic toxicities were observed

Q: What about the “toxicity by weight curves, macroscopical pathologies, hematoxylin-eosin staining of tissues” value [10] of the same compound?
A: did not show any apparent toxicity

Q: What about the “cell cycle / apoptosis phenotype” value [7] of the same compound?
A: G1-phase arrest

Q: And the pIC50 ([8]; Homo sapiens, A-375, 72 h)?
A: 5.21

Q: With Cc1sc2nc3c4ccccc4c(NCCCN(C)C)nn3c(=O)c2c1C [Compound 15] as the compound, how does the pEC50 [5] read?
A: 5.27

Q: And the “cellular γH2AX response (genotoxic stress)” value [9]?
A: induces genotoxic stress; also recorded: induced a cellular γH2AX response

Q: And the “inhibition of tumor cell growth (bioluminescence)” value [11]?
A: noticeable inhibition of the tumor cell growth

Q: And the “acute or chronic toxicities based on histological HE-stainings” value [10]?
A: No acute or chronic toxicities were observed

Q: What about the “toxicity by weight curves, macroscopical pathologies, hematoxylin-eosin staining of tissues” value [10] of the same compound?
A: did not show any apparent toxicity

Q: With CCOc1ccc(C2=CC(c3cc(OC)c(OC)c(OC)c3)n3ncnc3N2)cc1 (stereo not drawn) [Compound 20, 5-(4-ethoxyphenyl)-7-(3,4,5-trimethoxyphenyl)-4,7-dihydro-[1,2,4]triazolo[1,5-α]pyrimidine] as the compound, how does the pEC50 [5] read?
A: 6.22

Q: With Cc1cc(C)c2c(N)c3cccc(C)c3nc2n1 [Compound 23, 2,4,9-trimethylbenzo[b]-1,8-naphthyridin-5-amine] as the compound, how does the pEC50 [5] read?
A: 5.68

Q: And the “fraction of p53-reporter activated cells at high concentrations” value [5]?
A: decrease in the fraction of p53-reporter activated cells

Q: With COc1ccc(C2=N[C@@H](c3ccc(Cl)cc3)[C@@H](c3ccc(Cl)cc3)N2C(=O)N2CCNC(=O)C2)c(OC(C)C)c1 [Nutlin, nutlin-3a, reference compound] as the compound, how does the pIC50 [1] read?
A: 4.69

Q: And the pIC50 [3]?
A: < 4.40

Q: What about the pIC50 [4] of the same compound?
A: 4.97

Q: What about the “B-cell lymphoma cell killing” value ([12]; in vitro and in vivo mouse models) of the same compound?
A: highly effective agent inducing B-cell lymphoma

Q: What about the adverse side-effects ([12]; mouse) of the same compound?
A: does not cause any adverse side-effects

Q: And the pIC50 [6]?
A: < 4.40

Q: What about the pIC50 [8] of the same compound?
A: 5.14
